Results reported in PMC9037180, “Ligand-based design and synthesis of N'-Benzylidene-3,4-dimethoxybenzohydrazide derivatives as potential antimicrobial agents; evaluation by in vitro, in vivo, and in silico approaches with SAR studies” (Journal of Enzyme Inhibition and Medicinal Chemistry, 2022).
≈ marks a conversion by molar mass, not a printed value. Like-named read-outs stand apart in the source and are kept apart here.

Key:
[1] = tested on: S. typhi clinical isolate; assay: Minimal inhibitory concentration (MIC), broth dilution; assay type: cell-based
[2] = tested on: C. albicans MTCC183; assay: as above; assay type: cell-based
Excerpt: In vitro evaluation for antifungal activities regarding target compounds (4a–j) as well as reference drug, was done against C. albicans MTCC183 through the zone inhibition technique using well diffusion agar assay in addition to MIC.

[3] = tested on: E. faecalis, Acientobacter, P. auriginosa, S. aureus, S. typhi, E. coli, C. albicans; assay: Average MIC over the nine tested microbial species (SAR); assay type: cell-based; settings: for antimicrobial activity (SAR grading): based on MIC average values
Excerpt: Herein, we aimed to study the structure-antimicrobial activity relationship of the newly synthesised N'-benzylidene-3,4-dimethoxybenzohydrazide derivatives based on MIC average values[51]^,[52] as represented in the supplementary data (Table SI1). Thereby, the changes in their antimicrobial potential and spectrum upon structural modifications could be unveiled, thus offering clues for structural changes that are capable of increasing the antimicrobial potential.

[4] = tested on: E. coli; assay: Minimal bactericidal concentration (MBC); assay type: cell-based
Experimental: (§1) After determining the MIC for the target compounds, the minimal bactericidal concentration (MBC) for each compound that is required to kill each one of the above-mentioned microorganisms was assessed.

[5] = tested on: S. aureus; assay: Minimal bactericidal concentration (MBC); assay type: cell-based
Experimental: as §1

[6] = tested on: S. typhi; assay: Biochemical analysis in S. typhi infected rats; assay type: in vivo
Experimental: The compounds 4h and 4j were dissolved in DMSO (dimethyl sulfoxide) then further dilutions were made by using sterile distilled water. The doses of both candidates were calculated according to the method given by Paget and Barnes[60]. Sterile distilled water, DEMSO, and investigated compounds (4h (1.9 and 3.8 mg/kg) and 4j (1.9 and 3.8 mg/kg)) were injected in a volume of 4 ml/kg[61]. The experiment lasts two weeks, the 1st week for induction of infection in the infected groups and the 2nd week for the administration of the compounds in all groups. […]
ALT and AST were determined[66] using commercial kits obtained from Diamond Diagnostics, Egypt.
Serum urea was determined by using the modified Berthelot–Searcy method. Serum creatinine activity was also assessed by using the application of Jaffe’s reaction.
Serum levels of the pro-inflammatory cytokine, TNF-α, were determined by the quantitative enzyme immunoassay (EIA) kit purchased from R&D Systems (USA) according to the method of Howard and Harada[69], while that of anti-inflammatory cytokine IL-10 was according to Croft et al.. […]

[7] = H&E histological examination of liver and kidney, uninfected treated rats; assay type: in vivo; settings: for liver histological structure (H&E): 1.9 and 3.8 mg/kg IP daily for one week; for kidney histological structure (H&E): low dose and high dose (1.9 and 3.8 mg/kg IP)
Experimental: Rats were divided randomly into equal fifteen groups, each containing 9 rats as follows: • Group 1: Rats were kept on standard laboratory chow and water ad libitum to serve as a control. • Group 2: Rats have injected IP with sterile distilled water (4ml/kg) daily for one week to serve as a control. • Group 3: Rats have injected IP with DEMSO (dimethyl sulfoxide) (4 ml/kg) daily for one week to serve as a control. • Group 4: Rats have injected IP with 4h (1.9 mg/kg) daily for one week. • Group 5: Rats have injected IP with 4h (3.8 mg/kg) daily for one week. • Group 6: Rats have injected IP with 4i (1.9 mg/kg) daily for one week. • Group 7: Rats have injected IP with 4i (3.8 mg/kg) daily for one week. • Group 8: Rats were infected by a single IM injection of S. aureus strain [1.0 ml) 1 × 10^7) colony-forming units]. • Group 9: Rats have injected IP with 4h (1.9 mg/kg) daily for one week on the 7th day after induction of infection by a single IM injection of S. aureus strain [1.0 ml (1 × 10^7) colony-forming units. • Group 10: Rats have injected IP with 4h (3.8 mg/kg) daily for one week on the 7th day after induction of infection by a single IM injection of S. aureus strain [1.0 ml (1 × 10^7) colony-forming units]. • Group 11: Rats were infected by a single IM injection of S. typhi strain [1.0 ml (1 × 10^7) colony forming units). • Group 12: Rats have injected IP with 4h (1.9 mg/kg) daily for one week. on the 7th day after induction of infection by a single IM injection of S. typhi strain [1.0 ml (1 × 10^7) colony-forming units]. • Group 13: Rats have injected IP with 4h (3.8 mg/kg) daily for one week on the 7th day after infection by a single IM injection of S. typhi strain [1.0 ml (1 × 10^7) colony-forming units]. • Group 14: Rats have injected IP with 4i (1.9 mg/kg) daily for one week. on the 7th day after induction of infection by a single IM injection of S. typhi strain [1.0 ml (1 × 10^7) colony-forming units]. • Group 15: Rats have injected IP with 4i (3.8 mg/kg) daily for one week. on the 7th day after induction of infection by a single IM injection of Salmonella strain [1.0 ml (1 × 10^7) colony-forming units].
At the end of the experiment, the animals were euthanized through cervical dislocation. After that, the liver and kidney were dissected for histological study. The procedure for histological preparations was described by Bancroft and Stevens[73]. Briefly, liver and kidney tissues were sliced to 3–4 mm thick, fixed in 10% neutral buffered formalin (10% NBF), dehydrated in graded concentrations of ethanol, cleared in xylene, and embedded in paraffin. The paraffin blocks were sectioned with a microtome at (4–6 μm) thickness and dyed with H & E stain to study the general tissue structure.

[8] = tested on: E. faecalis ATCC 29212; assay: Minimal inhibitory concentration (MIC), broth dilution
[9] = tested on: A. baumanii ATCC 19606; assay: as above
[10] = tested on: Acientobacter sensitive; assay: as above
[11] = tested on: P. aeruginosa ATCC10145; assay: as above
[12] = tested on: E. coli ATCC 25922; assay: as above
[13] = first dose (1.9 mg/kg IP daily for one week)
[14] = second dose (3.8 mg/kg IP daily for one week)

Compound: COc1ccc(C(=O)NN=Cc2ccc3ccccc3n2)cc1OC [Compound 4i, N'-(quinolin-2-ylmethylene)-3,4-dimethoxybenzohydrazide]
- MIC ([1]; Salmonella enterica, TYPHI): 93.4 µM (≈ 31.3 µg/mL)
- MIC ([2]; Candida albicans, MTCC183): 23.3 µM (≈ 7.81 µg/mL)
- antimicrobial activity (SAR grading) [3]: weaker antimicrobial potential
- MIC ([3]; read-out: Average MIC): 99.7 µM (≈ 33.4 µg/mL)
- MBC ([4]; Escherichia coli): 186 µM (≈ 62.5 µg/mL)
- MBC ([5]; Staphylococcus aureus): 186 µM (≈ 62.5 µg/mL)
- renal and liver functions, oxidative stress and inflammatory markers (urea, creatinine, ALT, AST, GSH, MDA, TNF-α, IL-10) [6, 13]: normalisation of urea, ALT, and AST
- renal and liver functions, oxidative stress and inflammatory markers (urea, creatinine, ALT, AST, GSH, MDA, TNF-α, IL-10) [6, 14]: returning of urea, creatinine, ALT, and AST
- liver histological structure (H&E) [7]: normal histological structure
- kidney histological structure (H&E) [7]: histological structure similar to those of the control groups
- MIC ([8]; Enterococcus faecalis, ATCC29212): 93.4 µM (≈ 31.3 µg/mL)
- MIC ([9]; Acinetobacter baumannii, ATCC19606): 11.6 µM (≈ 3.9 µg/mL)
- MIC ([10]; Acinetobacter baumannii): 46.5 µM (≈ 15.6 µg/mL)
- MIC ([11]; Pseudomonas aeruginosa, ATCC10145): 186 µM (≈ 62.5 µg/mL)
- MIC ([12]; Escherichia coli, ATCC25922): 23.3 µM (≈ 7.81 µg/mL)

Compound: N'-((3a,7a-dihydro-1H-indol-3-yl)methylene)-3,4-dimethoxybenzohydrazide [Compound 4h]
- MIC ([1]; S. typhi (ST)): 12.07 µM
- MIC ([2]; C. albicans (CA), read-out: MIC): 386.80 µM
- Average MIC ([3]; average over nine microbial species): 112.13 µM
- antimicrobial activity (SAR grading) [3]: weaker antimicrobial potential
- MBC ([4]; E. coli): 96.87 µM
- MBC ([5]; S. aureus): 96.87 µM
- renal and liver functions, oxidative stress and inflammatory markers (urea, creatinine, ALT, AST, GSH, MDA, TNF-α, IL-10) [6, 13]: significant improvement in all measured parameters
- renal and liver functions, oxidative stress and inflammatory markers (urea, creatinine, ALT, AST, GSH, MDA, TNF-α, IL-10) [6, 14]: returning of urea, creatinine, AST, and TNF-α to normal levels
- liver histological structure (H&E) [7]: normal histological structure
- kidney histological structure (H&E) [7]: histological structure similar to those of the control groups
- MIC ([8]; E. faecalis (EF)): 96.87 µM
- MIC ([9]; Acientobacter ATCC 19606 (A A)): 48.28 µM
- MIC ([10]; Acientobacter sensitive (AS)): 24.17 µM
- MIC ([11]; P. auriginosa (PA)): 193.40 µM
- MIC ([12]; E. coli (EC)): 48.28 µM
